Assay results: patent US9079913B2, “Spiro-oxindole MDM2 antagonists” (The Regents of the University of Michigan, priority 2009, dated 2015)
Read-outs that look alike come from different tables or passages of the source.

Key:
[1] = system: cancer cell lines with wild-type p53 / mutated or deleted p53 (ATCC); assay: Cell growth assay (WST-8), other cancer cell lines; type: cell-based
[2] = target: recombinant human His-tagged MDM2 protein (residues 1-118) (Homo sapiens (Human), UniProt Q00987); assay: Fluorescence-polarization MDM2 binding assay;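 note: fluorescence polarization read after three hours of incubation in potassium phosphate buffer containing bovine gamma globulin and Triton X-100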
[3] = system: Isogenic HCT-116 colon cancer cell lines; assay: cells; type: cell-based;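 note: cells grown in 96-well plates in McCoy's 5A medium with 10% FBS, exposed to compound for 4 days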
Procedure: Cells were seeded in 96-well flat bottom cell culture plates at a density of 2−3×10^3 cells/well with compounds and incubated for 4 days.

[4] = Homo sapiens, LNCaP, Table 19B, LNCaP cells, read-out: Inhibition of cell growth IC50, LNCaP
[5] = Homo sapiens, PC-3, Table 19B, PC3 cells, read-out: Inhibition of cell growth IC50, PC3
[6] = Table 19B, read-out: Binding affinities to MDM2 protein as determined by FP based assay IC50
[7] = Homo sapiens, HCT-116, read-out: Inhibition of cell growth IC50, HCT116 p53 KO, Table 19B, HCT116 p53 KO
[8] = Homo sapiens, HCT-116, read-out: Inhibition of cell growth IC50, HCT116 p53 WT, Table 19B, HCT116 p53 WT
[9] = Homo sapiens, LNCaP, Table 19A, LNCAP cells, p53 wild-type, cell growth, read-out: LNCAP (p53 wild-type) IC50
[10] = Homo sapiens, PC-3, Table 19A, PC-3 cells, deleted p53, cell growth, read-out: PC-3 (deleted p53) IC50
[11] = Homo sapiens, SJSA-1, Table 19A, SJSA-1 cells, p53 wild-type, cell growth, read-out: SJSA-1 (p53 wild-type) IC50
[12] = Table 19A, FP binding assay, read-out: MDM2 IC50
[13] = Homo sapiens, HCT-116, read-out: HCT-116 (p53-/-) IC50, Table 19A, HCT-116 p53-/-, cell growth
[14] = Homo sapiens, HCT-116, read-out: HCT-116 (p53 wild-type) IC50, Table 19A, HCT-116 p53 wild-type, cell growth
[15] = Table 19B, LNCaP cells, read-out: Inhibition of cell growth IC50, LNCaP
[16] = Table 19B, PC3 cells, read-out: Inhibition of cell growth IC50, PC3
[17] = read-out: Inhibition of cell growth IC50, HCT116 p53 KO, Table 19B, HCT116 p53 KO
[18] = read-out: Inhibition of cell growth IC50, HCT116 p53 WT, Table 19B, HCT116 p53 WT

recombinant human His-tagged MDM2 protein (residues 1-118), sequence (Q00987 1-118): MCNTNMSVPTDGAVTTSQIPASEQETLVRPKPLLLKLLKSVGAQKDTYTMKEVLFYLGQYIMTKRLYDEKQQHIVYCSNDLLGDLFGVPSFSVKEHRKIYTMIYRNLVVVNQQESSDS

CC(C)(C)C[C@H]1N[C@@H](C(=O)NCC[C@H](O)CO)[C@H](c2cccc(Cl)c2)[C@@]12C(=O)Nc1c(Cl)cccc12 [MI-727]
IC50 [1, 4]: 12.2 ± 0.5 µM | IC50 [1, 5]: 21.4 ± 4.8 µM | IC50 [2, 6]: > 10 µM | IC50 [3, 7]: 20.9 ± 1.1 µM | IC50 [3, 8]: 24.1 ± 0.7 µM

O=C(NC1CCC(O)CC1)[C@@H]1N[C@H](CC2CCCC2)[C@]2(C(=O)Nc3cc(Cl)ccc32)[C@H]1c1cccc(Cl)c1F (stereo partly shown) [MI-791]
IC50 [1, 9]: < 3 µM | IC50 [1, 10]: > 10 µM | IC50 [1, 11]: < 3 µM | IC50 [2, 12]: < 3 µM | IC50 [3, 13]: > 10 µM | IC50 [3, 14]: < 3 µM

CC(C)(C)C[C@H]1N[C@@H](C(=O)NCC[C@H]2CC[C@@H](O)C2)[C@H](c2cccc(Cl)c2F)[C@@]12C(=O)Nc1cc(Cl)ccc12 [MI-754]
IC50 [1, 15]: < 3 µM | IC50 [1, 16]: > 5 µM | IC50 [2, 6]: < 1 µM | IC50 [3, 17]: > 5 µM | IC50 [3, 18]: < 3 µM

CC(C)(C)C[C@H]1N[C@@H](C(=O)NCCN2CC[C@H](O)C2)[C@H](c2cccc(Cl)c2)[C@@]12C(=O)Nc1cc(Cl)c(F)cc12 [MI-519-35]
IC50 [1, 9]: 1.4 ± 0.5 µM | IC50 [1, 10]: 6.7 ± 0.9 µM | IC50 [2, 12]: < 1 µM | IC50 [3, 13]: 5.3 ± 0.6 µM | IC50 [3, 14]: 1.8 ± 0.5 µM

CC(C)[C@H](N)C(=O)OC1CCC(NC(=O)[C@@H]2N[C@H](CC(C)(C)C)[C@]3(C(=O)Nc4cc(Cl)ccc43)[C@H]2c2cccc(Cl)c2F)CC1 (stereo partly shown) [MI-902]
IC50 [1, 9]: < 3 µM | IC50 [1, 10]: 4 µM | IC50 [1, 11]: < 3 µM | IC50 [2, 12]: < 3 µM | IC50 [3, 13]: 5.9 µM | IC50 [3, 14]: < 3 µM

O=C(NCC[C@H](O)CO)[C@@H]1N[C@H](CC2CC2)[C@]2(C(=O)Nc3cc(Cl)c(F)cc32)[C@H]1c1cccc(Cl)c1 [MI-706]
IC50 [1, 4]: 0.3 µM | IC50 [1, 5]: 4.6 ± 2.9 µM | IC50 [2, 6]: < 10 µM | IC50 [3, 7]: 1.3 ± 0.2 µM | IC50 [3, 8]: 0.6 ± 0.1 µM

CC(C)(C)C[C@H]1N[C@@H](C(=O)NCCN2CCC(O)CC2)[C@H](c2cccc(Cl)c2)[C@@]12C(=O)Nc1cc(Cl)c(F)cc12 [MI-759]
IC50 [1, 9]: 1.4 ± 0.1 µM | IC50 [1, 10]: 5.5 ± 2.3 µM | IC50 [2, 12]: < 1 µM | IC50 [3, 13]: 5.2 ± 1 µM | IC50 [3, 14]: 1.4 ± 0.6 µM

CN1[C@@H](C(=O)NCC[C@H](O)CO)[C@H](c2cccc(Cl)c2)[C@@]2(C(=O)Nc3cc(Cl)c(F)cc32)[C@H]1CC(C)(C)C [MI-708A]
IC50 [1, 15]: 3.5 µM | IC50 [1, 16]: 83.8 ± 11.3 µM | IC50 [2, 6]: > 3 µM | IC50 [3, 17]: 95.6 ± 18.2 µM | IC50 [3, 18]: 3.8 ± 1 µM

CC(C)CC(C)(C)C[C@H]1N[C@@H](C(=O)NCC[C@H](O)CO)[C@H](c2cccc(Cl)c2F)[C@@]12C(=O)Nc1cc(F)c(F)cc12 [MI-732]
IC50 [1, 4]: 0.7 µM | IC50 [1, 5]: 5.8 µM | IC50 [2, 6]: < 1 µM | IC50 [3, 7]: 10.2 ± 4.8 µM | IC50 [3, 8]: 0.7 ± 0.1 µM

CC[C@H]1N[C@@H](C(=O)NCCN2CCOCC2)[C@H](c2cccc(Cl)c2)[C@@]12C(=O)Nc1cc(Cl)c(F)cc12 [MI-319-39]
IC50 ([1]; Homo sapiens, LNCaP, Table 19C, LNCaP cells, read-out: Cell growth inhibition using WST assay, LNCaP IC50): > 3 µM | IC50 ([1]; Homo sapiens, PC-3, Table 19C, PC3 cells, read-out: Cell growth inhibition using WST assay, PC3 IC50): > 10 µM | IC50 ([2]; Table 19C, read-out: Bidning affinities to MDM2 as determined using FP assay IC50): > 10 µM | IC50 ([3]; Homo sapiens, HCT-116, read-out: Cell growth inhibition using WST assay, HCT116 p53KO IC50, Table 19C, HCT116 p53KO): > 10 µM | IC50 ([3]; Homo sapiens, HCT-116, read-out: Cell growth inhibition using WST assay, HCT116 p53WT IC50, Table 19C, HCT116 p53WT): > 3 µM

O=C(NCC[C@H](O)CO)[C@@H]1N[C@H](CCc2ccco2)[C@]2(C(=O)Nc3cc(Cl)c(F)cc32)[C@H]1c1cccc(Cl)c1 [MI-715C]
IC50 [1, 15]: 2.2 ± 1.2 µM | IC50 [1, 16]: > 10 µM | IC50 [2, 6]: < 5 µM | IC50 [3, 17]: > 10 µM | IC50 [3, 18]: 2.9 ± 0.6 µM

CN1[C@@H](C(=O)NCC[C@H](O)CO)[C@H](c2cccc(Cl)c2)[C@@]2(C(=O)Nc3cc(Cl)c(F)cc32)[C@H]1CCCc1ccccc1 [MI-709]
IC50 [1, 4]: 5.6 ± 1.1 µM | IC50 [1, 5]: 7.2 ± 1.4 µM | IC50 [2, 6]: > 10 µM | IC50 [3, 7]: 9.4 ± 1.2 µM | IC50 [3, 8]: 9.9 ± 1.7 µM

CC(C)(C)C[C@H]1N[C@@H](C(=O)NCCC2CCC(O)C2)[C@H](c2cccc(Cl)c2)[C@@]12C(=O)Nc1cc(F)c(F)cc12 (stereo partly shown) [MI-519-25]
IC50 ([1]; Homo sapiens, LNCaP, Table 19D, LNCaP cells, read-out: LNCaP IC50): < 5 µM | IC50 ([1]; Homo sapiens, PC-3, Table 19D, PC3 cells, read-out: PC3 IC50): > 10 µM | IC50 ([2]; Table 19D, read-out: MDM2 Binding Affinities IC50): < 3 µM | IC50 ([3]; Homo sapiens, HCT-116, read-out: HCT116p53KO IC50, Table 19D, HCT116 p53KO): > 10 µM | IC50 ([3]; Homo sapiens, HCT-116, read-out: HCT116p53WT IC50, Table 19D, HCT116 p53WT): < 3 µM

CCCCNC(=O)N1CC(NC(=O)[C@@H]2N[C@H](CC(C)(C)C)[C@]3(C(=O)Nc4cc(Cl)ccc43)[C@H]2c2cccc(Cl)c2F)C1 [MI-916]
IC50 [1, 9]: < 3 µM | IC50 [1, 10]: > 5 µM | IC50 [1, 11]: < 5 µM | IC50 [2, 12]: < 0.1 µM | IC50 [3, 13]: > 5 µM | IC50 [3, 14]: < 3 µM
